Assay results published in the NIST ThermoML archive (doi:10.1021/je900557u).
Numbers after ± are expanded uncertainties. Blank lines part the entries; values can stand above or below the compound they belong to.

Tests used:
[1] = refractive index (Na D-line) (dimensionless); conditions: 298.15 K; 101.33 kPa; Liquid; refractometer
[2] = 298.15 K; 101.33 kPa; Liquid; Vibrating tube method
[3] = xn = mol fraction of the nth substance listed; conditions: 298.15 K, 101 kPa, Liquid, Vibrating tube method

refractive index [1]: 1.50591 ± 0.00024
mass density [2]: 1219.61 ± 0.42 kg/m3
Structure (SMILES): CCOS(=O)(=O)[O-].CC[n+]1cccc(C)c1 [1-ethyl-3-methylpyridinium ethylsulfate]

refractive index [1]: 1.49304 ± 0.00014
mass density [2]: 862.51 ± 0.11 kg/m3
Structure (SMILES): CCc1ccccc1 [ethylbenzene]

mass density ([3]; x2 = 0): 862.51 ± 0.11 kg/m3
mass density ([3]; x2 = 0.0903): 843.13 ± 0.28 kg/m3
mass density ([3]; x2 = 0.1776): 824.35 ± 0.29 kg/m3
mass density ([3]; x2 = 0.2675): 805.21 ± 0.29 kg/m3
mass density ([3]; x2 = 0.3777): 781.93 ± 0.29 kg/m3
mass density ([3]; x2 = 0.4931): 757.81 ± 0.3 kg/m3
mass density ([3]; x2 = 0.5929): 737.22 ± 0.31 kg/m3
mass density ([3]; x2 = 0.6947): 716.43 ± 0.32 kg/m3
mass density ([3]; x2 = 0.7984): 695.45 ± 0.33 kg/m3
mass density ([3]; x2 = 0.8942): 676.28 ± 0.34 kg/m3
Structure (SMILES): CCc1ccccc1 [ethylbenzene] + CCCCCC

Structure (SMILES): CCCCCC [hexane]
refractive index [1]: 1.37234 ± 0.00024
mass density [2]: 655.19 ± 0.26 kg/m3

Structure (SMILES): CCCCCC [hexane] + CCc1ccccc1
mass density ([3]; x1 = 1): 655.19 ± 0.25 kg/m3

Structure (SMILES): CCCCCC [hexane] + Cc1ccccc1
mass density ([3]; x1 = 0.083): 841.73 ± 0.31 kg/m3
mass density ([3]; x1 = 0.1713): 820.75 ± 0.3 kg/m3
mass density ([3]; x1 = 0.298): 791.72 ± 0.3 kg/m3
mass density ([3]; x1 = 0.396): 770.3 ± 0.3 kg/m3
mass density ([3]; x1 = 0.5011): 748.44 ± 0.3 kg/m3
mass density ([3]; x1 = 0.5949): 729.53 ± 0.3 kg/m3
mass density ([3]; x1 = 0.6973): 709.61 ± 0.3 kg/m3
mass density ([3]; x1 = 0.7961): 691.1 ± 0.31 kg/m3
mass density ([3]; x1 = 0.8946): 673.45 ± 0.32 kg/m3
mass density ([3]; x1 = 1): 655.19 ± 0.25 kg/m3

Structure (SMILES): Cc1ccccc1 [toluene]
refractive index [1]: 1.49399 ± 0.00014
mass density [2]: 862.17 ± 0.11 kg/m3

Structure (SMILES): Cc1ccccc1 [toluene] + CCCCCC
mass density ([3]; x2 = 0): 862.17 ± 0.11 kg/m3
